Results: patent US12485169B2, “Compounds” (GREY WOLF THERAPEUTICS LIMITED, priority 2018, dated 2025)

target: T1, Purified ERAP1 (37-941)-10His (ERAP1) (Homo sapiens, UniProt Q9NZ08); experiment: ERAP1 mediated hydrolysis of an amide substrate (10-mer inhibition assay), biochemical system; conditions: 10-mer substrate, 23° C., 1 h, excitation 279 nm / emission 355 nm; read-out: IC50 vs Decapeptide WRVYEKC(Dnp)ALK-acid (where Dnp is Dinitrophenyl maleimide) (10-mer)
T1 construct: Purified ERAP1 (37-941)-10His (ERAP1)
T1 sequence (Q9NZ08 37-941): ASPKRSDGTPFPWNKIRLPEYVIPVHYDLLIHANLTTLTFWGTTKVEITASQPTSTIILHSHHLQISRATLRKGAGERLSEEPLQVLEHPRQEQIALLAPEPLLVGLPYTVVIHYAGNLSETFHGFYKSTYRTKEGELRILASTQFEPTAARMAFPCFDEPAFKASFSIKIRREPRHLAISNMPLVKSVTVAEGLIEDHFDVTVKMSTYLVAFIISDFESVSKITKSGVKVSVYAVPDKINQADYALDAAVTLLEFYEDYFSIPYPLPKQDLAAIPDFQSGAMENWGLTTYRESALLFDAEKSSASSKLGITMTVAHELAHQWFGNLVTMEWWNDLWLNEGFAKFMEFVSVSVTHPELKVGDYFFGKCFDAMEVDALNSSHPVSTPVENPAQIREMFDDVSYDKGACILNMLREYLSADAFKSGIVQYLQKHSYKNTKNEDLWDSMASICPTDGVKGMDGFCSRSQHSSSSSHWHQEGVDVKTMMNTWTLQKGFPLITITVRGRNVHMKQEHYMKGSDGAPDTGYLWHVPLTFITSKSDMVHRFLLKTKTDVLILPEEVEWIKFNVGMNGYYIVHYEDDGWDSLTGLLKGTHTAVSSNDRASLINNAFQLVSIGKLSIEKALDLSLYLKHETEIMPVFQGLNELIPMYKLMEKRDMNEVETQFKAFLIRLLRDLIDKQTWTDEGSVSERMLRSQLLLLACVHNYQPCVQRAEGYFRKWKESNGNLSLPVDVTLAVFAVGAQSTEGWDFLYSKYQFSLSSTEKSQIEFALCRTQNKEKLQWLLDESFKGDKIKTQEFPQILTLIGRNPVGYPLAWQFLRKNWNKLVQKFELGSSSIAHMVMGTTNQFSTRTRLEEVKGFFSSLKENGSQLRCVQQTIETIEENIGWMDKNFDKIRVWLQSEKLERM
Method: However, as ERAP1 hydrolyses the N-terminal amide bond and tryptophan is released this internal quenching is lost and the reaction is monitored by the increase in tryptophan fluorescence over the course of the assay. For the purposes of this application this assay is referred to as the “10mer inhibition assay” and compound potencies are calculated and expressed as IC50 as would be familiar to a person skilled in the art.
Biological Assay 1: ERAP1 Mediated Hydrolysis of an Amide Substrate Measured in a Biochemical System
Decapeptide WRVYEKC(Dnp)ALK-acid (where Dnp is Dinitrophenyl maleimide) (10-mer) L-Leucine 7-amido-4-methylcoumarin (L-AMC)
12.5 μL ERAP1 enzyme in 1×AB was combined with 250 nL test compound in DMSO. […] For detection, plates were read at excitation 365 nm and emission 442 nm (L-AMC) or excitation 279 nm and emission 355 nm (10-mer).

Row | SMILES | IC50 [µM]
1 | O=C(O)c1cc(S(=O)(=O)Nc2cc(C(F)(F)F)ccc2N2CCCCC2)ccc1Cl [Example 83, 2-chloro-5-(N-(2-(piperidin-1-yl)-5-(trifluoromethyl)phenyl)sulfamoyl)benzoic acid] | < 5
2 | COc1ccc(C(=O)O)cc1S(=O)(=O)Nc1cc(C(F)(F)F)ccc1N1CCC(C)CC1 [Example 84, 4-methoxy-3-(N-(2-(4-methylpiperidin-1-yl)-5-(trifluoromethyl)phenyl)sulfamoyl)benzoic acid] | < 5
3 | O=C(O)c1ccc(Cl)c(S(=O)(=O)Nc2cc(C(F)(F)F)ccc2N2CCCCCC2)c1 [Example 86, 3-(N-(2-(azepan-1-yl)-5-(trifluoromethyl)phenyl)sulfamoyl)-4-chlorobenzoic acid] | < 0.5
4 | O=C(O)c1ccc(O)c(S(=O)(=O)Nc2cc(C(F)(F)F)ccc2N2CCCCC2)c1 [Example 161, 4-hydroxy-3-(N-(2-(piperidin-1-yl)-5-(trifluoromethyl)phenyl)sulfamoyl)benzoic acid] | < 0.5
5 | COc1ccc(-c2nn[nH]n2)cc1S(=O)(=O)Nc1cc(C(F)(F)F)ccc1N1CCCCC1 [Example 171, 2-methoxy-N-(2-(piperidin-1-yl)-5-(trifluoromethyl)phenyl)-5-(tetrazol-5-yl)benzenesulfonamide] | < 5
6 | COc1ccc(C(=O)O)cc1S(=O)(=O)Nc1cc(C(F)(F)F)ccc1N1CCCC(O)C1 (centres unmarked) [Example 177, 3-(N-(2-(3-hydroxypiperidin-1-yl)-5-(trifluoromethyl)phenyl)sulfamoyl)-4-methoxybenzoic acid] | < 0.5
7 | COc1ccc(C(=O)O)cc1S(=O)(=O)Nc1cc(C(F)(F)F)ccc1N1CC[C@H](O)C1 [Example 178, (S)-3-(N-(2-(3-hydroxypyrrolidin-1-yl)-5-(trifluoromethyl)phenyl)sulfamoyl)-4-methoxybenzoic acid] | < 5
8 | COc1ccc(C(=O)O)cc1S(=O)(=O)Nc1cc(C(F)(F)F)ccc1N1CCCC(OC)C1 (centres unmarked) [Example 179, 4-methoxy-3-(N-(2-(3-methoxypiperidin-1-yl)-5-(trifluoromethyl)phenyl)sulfamoyl)benzoic acid] | < 0.5
9 | CCOC1CCN(c2ccc(C(F)(F)F)cc2NS(=O)(=O)c2cc(C(=O)O)ccc2OC)CC1 [Example 180, 3-(N-(2-(4-ethoxypiperidin-1-yl)-5-(trifluoromethyl)phenyl)sulfamoyl)-4-methoxybenzoic acid] | < 0.5
10 | COc1ccc(C(=O)O)cc1S(=O)(=O)Nc1cc(C(F)(F)F)ccc1N1CCC(OC)CC1 [Example 181, 4-methoxy-3-(N-(2-(4-methoxypiperidin-1-yl)-5-(trifluoromethyl)phenyl)sulfamoyl)benzoic acid] | < 0.5
11 | COc1ccc(C(=O)O)cc1S(=O)(=O)Nc1cc(C#N)ccc1N1CCCCC1 [Example 182, 3-(N-(5-cyano-2-(piperidin-1-yl)phenyl)sulfamoyl)-4-methoxybenzoic acid] | < 0.5
12 | CCc1ccc(C(=O)O)cc1S(=O)(=O)Nc1cc(C(F)(F)F)ccc1N1CC(O)C1 [Example 183, 4-ethyl-3-(N-(2-(3-hydroxyazetidin-1-yl)-5-(trifluoromethyl)phenyl)sulfamoyl)benzoic acid] | > 5
13 | COc1ccc(C(=O)O)cc1S(=O)(=O)Nc1cc(C(F)(F)F)cc(F)c1N1CCCCC1 [Example 184, 3-(N-(3-fluoro-2-(piperidin-1-yl)-5-(trifluoromethyl)phenyl)sulfamoyl)-4-methoxybenzoic acid] | < 0.5
14 | COc1ccc(C(=O)O)cc1S(=O)(=O)Nc1cc(C(F)(F)F)ccc1N1CCC(O)(C2CC2)CC1 [Example 185, 3-(N-(2-(4-cyclopropyl-4-hydroxypiperidin-1-yl)-5-(trifluoromethyl)phenyl)sulfamoyl)-4-methoxybenzoic acid] | < 0.5
15 | COc1ccc(C(=O)O)cc1S(=O)(=O)Nc1cc(C(F)(F)F)ccc1N1CCC2(CCO2)CC1 [Example 186, 3-(N-(2-(1-oxa-7-azaspiro[3.5]nonan-7-yl)-5-(trifluoromethyl)phenyl)sulfamoyl)-4-methoxybenzoic acid] | < 0.5
16 | COc1ccc(C(=O)O)cc1S(=O)(=O)Nc1cc(C(F)(F)F)ccc1N1CCC(OC(C)C)CC1 [Example 187, 3-(N-(2-(4-isopropoxypiperidin-1-yl)-5-(trifluoromethyl)phenyl)sulfamoyl)-4-methoxybenzoic acid] | < 5
17 | COc1ccc(C(=O)O)cc1S(=O)(=O)Nc1cc(C(F)(F)F)ccc1N1CC[C@@H](O)C1 [Example 188, (R)-3-(N-(2-(3-hydroxypyrrolidin-1-yl)-5-(trifluoromethyl)phenyl)sulfamoyl)-4-methoxybenzoic acid] | < 5
18 | CCC1(O)CN(c2ccc(C(F)(F)F)cc2NS(=O)(=O)c2cc(C(=O)O)ccc2OC)C1 [Example 189, 3-(N-(2-(3-ethyl-3-hydroxyazetidin-1-yl)-5-(trifluoromethyl)phenyl)sulfamoyl)-4-methoxybenzoic acid] | > 5
19 | O=C(O)c1ccc(C(F)(F)F)c(S(=O)(=O)Nc2cc(C(F)(F)F)ccc2N2CCCCC2)c1 [Example 200, 3-(N-(2-(piperidin-1-yl)-5-(trifluoromethyl)phenyl)sulfamoyl)-4-(trifluoromethyl)benzoic acid] | < 5

Further lines, results first:

Row | IC50 [µM] | SMILES
20 | < 0.5 | CCOc1ccc(C(=O)O)cc1S(=O)(=O)Nc1cc(C(F)(F)F)ccc1N1CCCCC1 [Example 201, 4-ethoxy-3-(N-(2-(piperidin-1-yl)-5-(trifluoromethyl)phenyl)sulfamoyl)benzoic acid]
21 | < 0.5 | COc1ccc(C(=O)O)cc1S(=O)(=O)Nc1cc(Cl)c(Cl)cc1N1CCCCC1 [Example 202, 3-(N-(4,5-dichloro-2-(piperidin-1-yl)phenyl)sulfamoyl)-4-methoxybenzoic acid]
22 | < 0.5 | CCc1ccc(C(=O)O)cc1S(=O)(=O)Nc1cc(C(F)(F)F)ccc1N1CCC(F)(F)CC1 [Example 203, 3-(N-(2-(4,4-difluoropiperidin-1-yl)-5-(trifluoromethyl)phenyl)sulfamoyl)-4-ethylbenzoic acid]
23 | < 0.5 | CCc1ccc(C(=O)O)cc1S(=O)(=O)Nc1cc(C(F)(F)F)ccc1N1CCCC(F)(F)C1 [Example 204, 3-(N-(2-(3,3-difluoropiperidin-1-yl)-5-(trifluoromethyl)phenyl)sulfamoyl)-4-ethylbenzoic acid]
24 | < 0.5 | CCc1ccc(C(=O)O)cc1S(=O)(=O)Nc1cc(C(F)(F)F)ccc1N1CCC(F)CC1 [Example 205, 4-ethyl-3-(N-(2-(4-fluoropiperidin-1-yl)-5-(trifluoromethyl)phenyl)sulfamoyl)benzoic acid]
25 | < 0.5 | COc1ccc(C(=O)O)cc1S(=O)(=O)Nc1cc(C(F)(F)F)ccc1N1CCC(F)CC1 [Example 206, 3-(N-(2-(4-fluoropiperidin-1-yl)-5-(trifluoromethyl)phenyl)sulfamoyl)-4-methoxybenzoic acid]
26 | < 0.5 | COc1ccc(C(=O)O)cc1S(=O)(=O)Nc1cc(S(C)(=O)=O)ccc1N1CCCCC1 [Example 207, 4-methoxy-3-(N-(5-(methylsulfonyl)-2-(piperidin-1-yl)phenyl)sulfamoyl)benzoic acid]
27 | < 0.5 | COc1ccc(C(=O)O)cc1S(=O)(=O)Nc1cc(C(F)(F)F)ccc1N1CCC[C@@H](F)C1 [Example 208, I-3-(N-(2-(3-fluoropiperidin-1-yl)-5-(trifluoromethyl)phenyl)sulfamoyl)-4-methoxybenzoic acid]
28 | < 0.5 | COc1ccc(C(=O)O)cc1S(=O)(=O)Nc1cc(C(F)(F)F)ccc1N1CCC[C@H](F)C1 [Example 209, (S)-3-(N-(2-(3-fluoropiperidin-1-yl)-5-(trifluoromethyl)phenyl)sulfamoyl)-4-methoxybenzoic acid]
29 | < 0.5 | CCc1ccc(C(=O)O)cc1S(=O)(=O)Nc1cc(C(F)(F)F)ccc1N1CCC[C@H](F)C1 [Example 210, (S)-4-ethyl-3-(N-(2-(3-fluoropiperidin-1-yl)-5-(trifluoromethyl)phenyl)sulfamoyl)benzoic acid]
30 | < 0.5 | CCc1ccc(C(=O)O)cc1S(=O)(=O)Nc1cc(C(F)(F)F)ccc1N1CCC[C@@H](F)C1 [Example 211, I-4-ethyl-3-(N-(2-(3-fluoropiperidin-1-yl)-5-(trifluoromethyl)phenyl)sulfamoyl)benzoic acid]
31 | < 0.5 | COc1ccc(C(=O)O)cc1S(=O)(=O)Nc1cc(C(F)F)ccc1N1CCCCC1 [Example 212, 3-(N-(5-(difluoromethyl)-2-(piperidin-1-yl)phenyl)sulfamoyl)-4-methoxybenzoic acid]
32 | < 0.5 | CCc1ccc(C(=O)O)cc1S(=O)(=O)Nc1cc(C(F)F)ccc1N1CCCCC1 [Example 213, 3-(N-(5-(difluoromethyl)-2-(piperidin-1-yl)phenyl)sulfamoyl)-4-ethylbenzoic acid]
33 | < 0.5 | COc1ccc(C(=O)O)cc1S(=O)(=O)Nc1cc(-n2cnnn2)ccc1N1CCCCC1 [Example 214, 4-methoxy-3-(N-(2-(piperidin-1-yl)-5-(1H-tetrazol-1-yl)phenyl)sulfamoyl)benzoic acid]
34 | < 0.5 | CCc1ccc(C(=O)O)cc1S(=O)(=O)Nc1cc(C#N)ccc1N1CCCCC1 [Example 215, 3-(N-(5-cyano-2-(piperidin-1-yl)phenyl)sulfamoyl)-4-ethylbenzoic acid]
35 | < 0.5 | CCc1ccc(C(=O)O)cc1S(=O)(=O)Nc1cc(Cl)ccc1N1CCCCC1 [Example 216, 3-(N-(5-chloro-2-(piperidin-1-yl)phenyl)sulfamoyl)-4-ethylbenzoic acid]
